US8093216B2, “Method of treating cancer by inhibition of p95HER-2 production” (Oregon Health & Science University, priority 1998, dated 2012)
Entries after “also recorded” stand apart in the source; their conditions may differ.

Legend:
p95HER-2 [1] = experiment: Cell level of truncated p95HER-2, Western blot of cell extracts with anti-neu (C), BT474 cells; assay type: cell-based, human
Protocol: BT474 cells in serum-free medium were treated for 24 hrs with the control vehicle or with 1, 10, 20, and 40 μM TAPI (a gift from Immunex, Seattle, Wash.). In the top panel (FIG. 5A), the concentrated, conditioned media, normalized to the amount of cell extract, were analyzed by western blotting with anti-neu (N). […] In the lower panel (FIG. 5B), 20 μg of cell proteins were analyzed by Western blotting using anti-neu (C). […]
Therefore, effects of different concentrations of the hydroxamic acid, TAPI (Mohler et al., Nature 370:218-220, 1994) was tested on shedding of HER-2/neu ECD and on cell levels of p95.

p95HER-2 [2] = experiment: p95HER-2 level in a further, unnamed cell line treated with TAPI; assay type: cell-based
HER-2/neu ECD = experiment: Shedding of HER-2/neu ECD into conditioned media, Western blot with anti-neu (N), BT474 cells; assay type: cell-based, human
Protocol: Cells were treated for 24 hrs in serum-free medium with control vehicle or with 500 nM of the phorbol ester TPA and 50 μM chloroquine. In the top panel (FIG. 4A), 5 ml of conditioned media was concentrated 100 fold, denatured under nonreducing conditions, and aliquots normalized to cell extract protein were analyzed by western blotting with anti-neu (N) monoclonal antibody at 1 μg/ml. In the lower panel (FIG. 4B), 20 μg of cell proteins were analyzed by Western blotting using anti-neu (C). The data shown in FIG. 4 are representative of three replicate experiments.
BT474 cells in serum-free medium were treated for 24 hrs with the control vehicle or with 1, 10, 20, and 40 μM TAPI (a gift from Immunex, Seattle, Wash.). In the top panel (FIG. 5A), the concentrated, conditioned media, normalized to the amount of cell extract, were analyzed by western blotting with anti-neu (N). […] In the lower panel (FIG. 5B), 20 μg of cell proteins were analyzed by Western blotting using anti-neu (C).
Tyrosine phosphorylation of tyrosine kinase receptors generally indicates their activation in signaling (Hynes et al., Biochem. Biophys. Acta 1198:165-184, 1994; and Dougall et al., Oncogene 9: 2109-2123, 1994). The tyrosine phosphorylation of p95HER-2, and its subcellular location were examined by fractionation of BT474 cell extracts into a soluble fraction and a particulate fraction. Each fraction was immunoprecipitated with anti-neu (C) and then subjected to Western blot analysis using monoclonal antibodies against phosphotyrosine. […]
To determine whether p95HER-2 and ECD were coordinately regulated, TPA (500 nM) and chloroquine (50 μM) or the control vehicle were added to the culture media of BT474 and SKOV3 cells. […] At 24 hrs, the ECD levels in the extracellular media and p95HER-2 levels in the cell extract were analyzed. […]

p185HER-2/neu = p185HER-2/neu level in treated cells, Western blot with anti-neu (C); assay type: cell-based, human; settings: cells treated with TAPI
Protocol: BT474 cells in serum-free medium were treated for 24 hrs with the control vehicle or with 1, 10, 20, and 40 μM TAPI (a gift from Immunex, Seattle, Wash.). In the top panel (FIG. 5A), the concentrated, conditioned media, normalized to the amount of cell extract, were analyzed by western blotting with anti-neu (N). Similar results were obtained when 5 μg of protein from the conditioned media from each culture were analyzed.
This example illustrates that a metalloprotease inhibitor depressed levels of p95HER-2 and ECD from BT474 cells. Shedding of diverse transmembrane proteins is inhibited by hydroxamic acid-based compounds, which are potent metalloproteinase inhibitors (McGeehan et al., Nature 370:561, 1994; Mohler et al., Nature 370:218-220, 1994; and Arribas et al., J. Biol. Chem. 271:11376-11382, 1996). Therefore, effects of different concentrations of the hydroxamic acid, TAPI (Mohler et al., Nature 370:218-220, 1994) was tested on shedding of HER-2/neu ECD and on cell levels of p95. TAPI (0 to 40 μM) was added to cultured BT474 cells for 24 hrs, the ECD in concentrated conditioned media was analyzed by immunoblotting with anti-neu (N), and p95HER-2 and p185HER-2 polypeptides were examined in cell extracts using an anti-neu (C) monoclonal antibody. […] A residual amount of about 10% of the ECD resisted inhibition by even 40 μM TAPI.

[3] = 1 μM TAPI, three separate experiments
[4] = BT474 cells, 24 hrs, 1, 10, 20 and 40 μM TAPI

TAPI
inhibition of p95HER-2 level (p95HER-2 [1]; [3]): ≤ 50% | level of truncated p95HER-2 at 1 μM TAPI (p95HER-2 [1]; BT474 cells, 24 hrs, 1 μM): little or no effect | effect on p95HER-2 level (p95HER-2 [1]; [4]): inhibited; also recorded: suppressed | effect on p95HER-2 in a cell line (p95HER-2 [2]): increased | inhibition of ECD level (HER-2/neu ECD; [3]): ≤ 50% | effect on ECD level (HER-2/neu ECD; [4]): inhibited; also recorded: suppressed | production of ECD at 1 μM TAPI (HER-2/neu ECD; BT474 cells, serum-free medium, 24 hrs, 1 μM): partially inhibited | change in p185HER-2/neu levels (p185HER-2/neu): No change
